In US20050058600A1, “3,3'-Diindolylmethane antiandrogenic compositions” (priority 2003, published 2005):

Columns and labels:
AR = target: T1, AR (Homo sapiens, UniProt P10275, T878A); assay: AR cytoplasmic/nuclear distribution by subcellular fractionation and Western blot in LNCaP cells; format: cell-based
T1 construct: 95 μL of either LNCaP cell extracts or recombinant AR protein; endogenous in cells; host or cells: LNCaP
T1 sequence (P10275 1-920 T878A): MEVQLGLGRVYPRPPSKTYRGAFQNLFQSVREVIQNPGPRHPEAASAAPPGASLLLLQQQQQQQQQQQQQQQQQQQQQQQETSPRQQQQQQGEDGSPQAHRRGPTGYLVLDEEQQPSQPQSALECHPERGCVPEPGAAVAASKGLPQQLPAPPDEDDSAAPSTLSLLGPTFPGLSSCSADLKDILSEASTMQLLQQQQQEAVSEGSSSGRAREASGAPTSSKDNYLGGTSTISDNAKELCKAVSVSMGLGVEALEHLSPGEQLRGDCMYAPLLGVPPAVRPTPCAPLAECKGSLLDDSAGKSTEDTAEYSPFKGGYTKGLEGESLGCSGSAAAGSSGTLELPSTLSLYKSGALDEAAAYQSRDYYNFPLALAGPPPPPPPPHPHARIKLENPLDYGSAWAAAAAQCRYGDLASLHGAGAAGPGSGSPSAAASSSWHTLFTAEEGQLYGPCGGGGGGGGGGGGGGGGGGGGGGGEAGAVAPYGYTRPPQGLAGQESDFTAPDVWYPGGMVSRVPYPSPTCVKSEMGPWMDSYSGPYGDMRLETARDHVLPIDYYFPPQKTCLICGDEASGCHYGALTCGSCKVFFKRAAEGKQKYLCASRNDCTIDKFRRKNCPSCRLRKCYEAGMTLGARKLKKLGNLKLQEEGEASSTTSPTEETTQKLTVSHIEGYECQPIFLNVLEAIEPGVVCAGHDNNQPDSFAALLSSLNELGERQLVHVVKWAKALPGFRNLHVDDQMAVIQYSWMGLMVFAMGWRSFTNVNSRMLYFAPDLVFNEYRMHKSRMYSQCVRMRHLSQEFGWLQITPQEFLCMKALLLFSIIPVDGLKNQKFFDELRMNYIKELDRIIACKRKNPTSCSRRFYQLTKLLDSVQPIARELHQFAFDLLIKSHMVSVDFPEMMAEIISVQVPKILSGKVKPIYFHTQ
Method: Subcellular Fractionation. Three near confluent (80-90%) cultures of LNCaP cells in 100 mm Petri dishes were used for each treatment. Treatments were added as 1 μL of 1,000× solution in DMSO per ml of medium for the indicated time. After incubation with treatments at 37° C., cytosolic and nuclear proteins were prepared as described (32,33) with modifications. Briefly, cells were lysed in hypotonic buffer (10 mM Hepes, pH 7.5) and harvested in MDH buffer (3 mM MgCl2, 1 mM DTT, 25 mM Hepes, pH 7.5). After homogenization, supernatant was saved for cytosolic proteins and nuclear proteins were extracted from the pellets using MDHK buffer (3 mM MgCl2, 1 mM DTT, 0.1 M KCl, 25 mM Hepes, pH 7.5) followed by HDK buffer (25 mM Hepes, pH 7.5, 1 mM DTT, 0.4 M KCl). Cytosolic and nuclear extracts were subsequently analyzed by Western blot analysis.
Western Blot Analysis. Following the indicated treatment, Western immunoblot analyses of androgen receptor from LNCaP cells were performed as described previously (20). […] The amount of protein was quantified by Gel Densitometer (Bio-Rad) and normalized with P-actin when used as an internal control.

GFP-AR = assay: Fluorescence imaging of GFP-AR in transfected PC-3 cells; format: cell-based
Method: Transient Transfections with Reporters and Luciferase Assay. LNCaP and PC-3 cells were transfected, with some modifications, as previously described (20). For AR transactivation, cells were transfected with 0.1 μg of MMTV-Luc or pPSA-Luc per plate. Co-transfection experiments with pCMV-hAR or pCMV-GFP-rAR, 0.1 μg per plate was also used. For experiments involving GFP fluorescence imaging, treatments were not added until 30 h after transfection.
Fluorescence Imaging. PC-3 cells were plated on cover slips in six-well culture plates at 1.5×10^5 cells per well in 5% DCC-FBS-DMEM medium. Cells were co-transfected with pCMV-GFP-rAR and pPSA-Luc or MMTV-Luc as indicated above. Cover slips were placed on microscope slides and images were taken at 1000×.

breast cancer cells = conditions: in culture; cited from earlier work

- effect on nuclear translocation of the AR, compound alone (AR; absence of DHT): had no effect
- block of DHT-induced AR translocation (AR; co-treatment with 1 nM DHT): up to 75%
Compound: c1ccc2c(Cc3c[nH]c4ccccc34)c[nH]c2c1 [DIM, 3,3′-diindolylmethane]
- distribution of GFP-AR fluorescence (GFP-AR; DIM alone): predominantly cytoplasmic distribution
- formation of AR foci in the nucleus (GFP-AR; DIM treatment with DHT): prevented the formation of AR foci
- inhibition of AR translocation induced by DHT (GFP-AR; co-treatment with 50 μM DIM and 1 nM DHT): partially inhibited
- programmed cell death in human breast tumor cells (breast cancer cells): induced programmed cell death
- proliferation of breast cancer cells (breast cancer cells): inhibit proliferation
